These results are taken from PubChem BioAssay AID651988 (The Scripps Research Institute Molecular Screening Center, 2013).

Activity calls are given as the source filed them.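 Rule for the calls: active = inhibition of 50% or more at 300 nM in exactly one of the two enzyme panels, LYPLA1 or LYPLA2; inactive = under 50% in both panels, or reaching 50% in both.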

The target of assay [1] is Acyl-protein thioesterase 2 (Homo sapiens) (UniProt O95372). As to the kind of experiment: LYPLA1 and LYPLA2 inhibitors in proteome, late-stage follow-up, selectivity assay for LYPLA1/LYPLA2 inhibitor project, cell lysate, gel-based ABPP, fluorescence, HEK293T proteome, powder samples (AID 651988). The note with it: HEK293T soluble proteome, FP-PEG-Rh fluorescence, LYPLA2, at 10 µM, stronger effect = higher value.

Assay [2] has as its target Acyl-protein thioesterase 1 (Homo sapiens) (UniProt O75608). Described as above. Particulars: HEK293T soluble proteome, FP-PEG-Rh fluorescence, LYPLA1, at 10 µM, stronger effect = higher value.

Chain of Acyl-protein thioesterase 2 (Homo sapiens) (O95372 whole entry, looked up): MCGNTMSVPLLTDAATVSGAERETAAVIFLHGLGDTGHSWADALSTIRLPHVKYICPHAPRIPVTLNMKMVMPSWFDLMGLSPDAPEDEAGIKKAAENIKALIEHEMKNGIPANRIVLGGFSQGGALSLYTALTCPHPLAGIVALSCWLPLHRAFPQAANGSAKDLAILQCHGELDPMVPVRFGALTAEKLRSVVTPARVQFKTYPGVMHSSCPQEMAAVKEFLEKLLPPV
Chain of Acyl-protein thioesterase 1 (Homo sapiens) (O75608 whole entry, looked up): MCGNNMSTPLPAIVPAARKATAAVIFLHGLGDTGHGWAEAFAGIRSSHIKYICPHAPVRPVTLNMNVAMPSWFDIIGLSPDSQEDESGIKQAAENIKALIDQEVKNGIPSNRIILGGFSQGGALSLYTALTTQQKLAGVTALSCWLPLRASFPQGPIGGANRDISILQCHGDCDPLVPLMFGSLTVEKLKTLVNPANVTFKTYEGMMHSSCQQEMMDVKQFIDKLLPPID

The inhibition is the change of the read-out against control, counted positive when it falls. For the compound `O=C(c1cc2c(s1)-c1ccccc1S(=O)(=O)C2)N1CCN(c2ccc(Cl)cc2)CC1`, the inhibition in assay [1] was 100% (inactive); in assay [2], 0% (inactive).
For `O=C(c1cc2c(s1)-c1ccc(Cl)cc1S(=O)(=O)C2)N1CCN(C2CCCCC2)CC1`, in that order: 75% (inactive) and 0% (inactive).
For `O=C(c1cc2c(s1)-c1ccccc1S(=O)(=O)C2)N1CCN(c2ccccc2)CC1`, in that order: 75% (inactive) and 0% (inactive).
Regarding `Cc1nnsc1C(=O)N1CCCC(N2CCN(c3cccc(C(F)(F)F)c3)CC2)C1` (configuration not stated), the inhibition in assay [1] and in assay [2] was 0% (inactive) each time.
Turning to `O=C(c1cc2c(s1)-c1ccc(Cl)cc1S(=O)(=O)C2)N1CCN(c2ccccn2)CC1`, the inhibition in assay [1] and in assay [2] was 0% (inactive) each time.
Regarding `O=C(CN1CCN(C(=O)c2ccco2)CC1)Nc1ccc(Br)cc1Cl`, the inhibition in assay [1] and in assay [2] was 50% (inactive) in each case.
Consider `COc1ccc(N2CCN(C(=O)c3ccc(C(C)(C)C)cc3)CC2)cc1`, for which the inhibition in assay [1] is 75% (inactive); in assay [2], 0% (inactive).
For `O=C(c1ccco1)N1CCN(C(=S)Nc2cccc([N+](=O)[O-])c2)CC1`, in that order: 0% (inactive) and 0% (inactive).
Take `O=C(COc1ccc(Cl)cc1)N1CCN(c2cccc(C(F)(F)F)c2)CC1`: the inhibition in assay [1] was 0% (inactive); in assay [2] it was 25% (inactive).
Take `COc1ccc(N2CCN(C(=O)c3cc4c(s3)CCCCC4)CC2)cc1`: the values for the inhibition in assay [1] and in assay [2] were 100% (inactive) and 0% (inactive), respectively.
As to `O=C(c1cc2c(s1)-c1ccccc1S(=O)(=O)C2)N1CCN(Cc2ccccc2)CC1`, the inhibition was 50% (inactive) in assay [1] and 0% (inactive) in assay [2].
For `CC(C(=O)Nc1cccc(C(F)(F)F)c1)N1CCN(C(=O)c2ccco2)CC1` (configuration not stated), in that order: 0% (inactive) and 0% (inactive).
Turning to `O=C(CN1CCN(C(=O)c2ccco2)CC1)Nc1cc(C(F)(F)F)ccc1Cl`, the inhibition in assay [1] was 25% (inactive); in assay [2] it was 100%.
For `COc1ccccc1N1CCN(C(=O)c2cc3c(s2)-c2ccccc2S(=O)(=O)C3)CC1`, the inhibition in assay [1] and in assay [2] was 0% (inactive) in each case.
Consider `CC1CCc2c(sc(NC(=O)CN3CCN(C(=O)c4ccco4)CC3)c2C#N)C1` (configuration not stated), for which the inhibition in assay [1] and in assay [2] was 0% (inactive) throughout.
For the compound `CCOC(=O)N1CCN(C(=O)c2cc3c(s2)-c2ccc(Cl)cc2S(=O)(=O)C3)CC1`, the inhibition in assay [1] and in assay [2] was 0% (inactive) throughout.
As to `O=C(c1cc2c(s1)-c1ccccc1S(=O)(=O)C2)N1CCN(C2CCCCC2)CC1`, the results for the inhibition in assay [1] and in assay [2] were 25% (inactive) and 0% (inactive), respectively.
For `O=C(c1cc2c(s1)-c1ccccc1S(=O)(=O)C2)N1CCN(c2cccc(Cl)c2)CC1`, in that order: 0% (inactive) and 0% (inactive).
With `O=C(c1ccco1)N1CCN(C(=S)Nc2ccc(F)c(Cl)c2)CC1`, the inhibition in assay [1] was 50% (inactive); in assay [2] it was 100% (inactive).
For `COc1ccc(N2CCN(C(=O)c3cc4c(s3)-c3ccccc3S(=O)(=O)C4)CC2)cc1`, in that order: 100% and 0% (inactive).
`O=C(c1cc2c(s1)-c1ccc(Cl)cc1S(=O)(=O)C2)N1CCN(c2ncccn2)CC1`: the values for the inhibition in assay [1] and in assay [2] were 75% (inactive) and 0% (inactive), respectively.
For `O=C(Nc1ccc(N2CCN(C(=O)c3ccco3)CC2)c(Cl)c1)c1c(F)c(F)c(F)c(F)c1F`, in that order: 50% (inactive) and 75% (inactive).
For `O=C(CN1CCN(C(=O)c2ccco2)CC1)Nc1cccc(Cl)c1Cl`, in that order: 0% (inactive) and 0% (inactive).
For `O=C(CN1CCN(C(=O)c2ccco2)CC1)Nc1ccc(Cl)cc1Cl`, in that order: 50% (inactive) and 50% (inactive).
With `O=C(CN1CCN(C(=O)c2ccco2)CC1)Nc1cc(Cl)ccc1Cl`, the values for the inhibition in assay [1] and in assay [2] were 25% (inactive) and 100%, respectively.
With `O=C(CN1CCN(C(=O)c2ccccc2)CC1)Nc1cc(S(=O)(=O)N2CCCC2)ccc1Cl`, the inhibition in assay [1] was 0% (inactive); in assay [2], 75% (inactive).
